Laboratory results from paper PMC7558102, “Hybrid Multimodal Imaging Synthons for Chemoselective and Efficient Biomolecule Modification with Chelator and Near-Infrared Fluorescent Cyanine Dye” (Pharmaceuticals, 2020).
Where two headings read alike, the source gives them in different places.

Tests used:
[1] = logD of the unconjugated NIR cyanine dyes 1–3; assay type: physicochemical; conditions: 1-octanol/water; unconjugated dye
[2] = photophysical properties (absorbance and emission measurements); assay type: physicochemical; conditions: for log ε: at λmax(abs); for λmax(em): excitation wavelength λex = 650 nm
Description: Finally, the photophysical properties were determined for dyes, MIS and their conjugates. It could be shown that the photophysical properties remained largely unaltered, including absorption coefficients and emission characteristics (Table 1). […] The only change in photophysical properties we qualitatively observed was an increase in the quantum yields of the dye conjugates compared to their unconjugated leads 1–3, an effect that was described before and can be attributed to the conjugation of sterically demanding groups (such as the PESIN homodimers used here), resulting in a decrease in aggregation of the dye molecules and thus a reduced fluorescence quenching. γ-Counting was performed using a 2480 Wizard gamma counter system from Perkin Elmer. A Cary 100 Bio system (Varian) was used to record the UV/Vis-Spectra together with 4 mL PMMA cuvettes from Sigma-Aldrich. Furthermore, for absorbance and emission measurements, a Tecan Infinite M200 Microplate reader together with a Nunc Micro-Well 96 solid plate from ThermoFisher was used.

[3] = assay type: physicochemical; conditions: pH 7.4
Description: (§1) The mixtures were vigorously shaken for 5 min on a vibrating plate. After subsequent centrifugation at 13,000 rpm for 5 min, 125 µL was taken from each phase and measured in a γ-counter. The logD values were calculated from three or four independent experiments, each performed in triplicate. For 18, the logD was determined by semipreparative HPLC. For this purpose, a solution of 18 (10 µL, c = 5 × 10^−4 mol/L) in water was added to a mixture of 1 mL 1-octanol and 990 µL phosphate buffered solution (0.05 M, pH 7.4) and vigorously shaken for 5 min. After centrifugation, the phases were separated and both phases were analyzed by semipreparative HPLC and the peaks of the UV signals at 214 nm were integrated. The logD was determined by three separate measurements, each experiment performed in triplicate.

[4] = water/1-octanol partition coefficients (logD) of 68Ga-labeled compounds, γ-counting; assay type: physicochemical; conditions: pH 7.4
Description: as §1

Structure (SMILES)	logD [1]	Stokes Shift [2] [nm]	λmax(abs) [2] [nm]	log ε [2] [M^−1 cm^−1]	λmax(em) [2] [nm]	logD [3]	logD [4]
CC1(C)C(/C=C/C2=C(c3ccc(C(=O)O)cc3)C(=C/C=C3/N(CCCCS(=O)(=O)[O-])c4ccc5ccccc5c4C3(C)C)/CCC2)=[N+](CCCCS(=O)(=O)O)c2ccc3ccccc3c21 [Compound 1]	-1.03 ± 0.11	11	804	5.00	815	–	–
CC1(C)C(/C=C/C2=C(c3ccccc3)C(=C/C=C3/N(CCCCS(=O)(=O)[O-])c4ccc(S(=O)(=O)O)cc4C3(C)C)/CCC2)=[N+](CCCCS(=O)(=O)O)c2ccc(C(=O)O)cc21 [Compound 2]	-4 ± 0.11	20	761	5.44	781	–	–
CC1(C)C(/C=C/C2=C(c3ccc(CCC(=O)O)cc3)C(=C/C=C3/N(CCCCS(=O)(=O)[O-])c4ccc(S(=O)(=O)O)cc4C3(C)C)/CCC2)=[N+](CCCCS(=O)(=O)O)c2ccc(S(=O)(=O)O)cc21 [Compound 3]	-3.95 ± 0.15	19	756	5.32	775	–	–
CSCC[C@H](NC(=O)[C@H](CC(C)C)NC(=O)[C@H](Cc1c[nH]cn1)NC(=O)CNC(=O)[C@@H](NC(=O)[C@H](C)NC(=O)[C@H](Cc1c[nH]c2ccccc12)NC(=O)[C@H](CCC(N)=O)NC(=O)CCOCCOCCOCCOCCNC(=O)CON=Cc1ccc(C(=O)NCCCN(CCCNC(=O)c2ccc(C=NOCC(=O)NCCOCCOCCOCCOCCC(=O)N[C@@H](CCC(N)=O)C(=O)N[C@@H](Cc3c[nH]c4ccccc34)C(=O)N[C@@H](C)C(=O)N[C@H](C(=O)NCC(=O)N[C@@H](Cc3c[nH]cn3)C(=O)N[C@@H](CC(C)C)C(=O)N[C@@H](CCSC)C(N)=O)C(C)C)cc2)CC(=O)N[C@H](CSC2CC(=O)N(CCN3C(=O)CC(SC)C3=O)C2=O)C(=O)NCCOCCOCC(N)=O)cc1)C(C)C)C(N)=O (stereo partly drawn) [Compound 18]	–	–	–	–	–	-0.99 ± 0.03	–
CSCC[C@H](NC(=O)[C@H](CC(C)C)NC(=O)[C@H](Cc1c[nH]cn1)NC(=O)CNC(=O)[C@@H](NC(=O)[C@H](C)NC(=O)[C@H](Cc1c[nH]c2ccccc12)NC(=O)[C@H](CCC(N)=O)NC(=O)CCOCCOCCOCCOCCNC(=O)CON=Cc1ccc(C(=O)NCCCN(CCCNC(=O)c2ccc(C=NOCC(=O)NCCOCCOCCOCCOCCC(=O)N[C@@H](CCC(N)=O)C(=O)N[C@@H](Cc3c[nH]c4ccccc34)C(=O)N[C@@H](C)C(=O)N[C@H](C(=O)NCC(=O)N[C@@H](Cc3c[nH]cn3)C(=O)N[C@@H](CC(C)C)C(=O)N[C@@H](CCSC)C(N)=O)C(C)C)cc2)CC(=O)N[C@H](CSC2CC(=O)N(CCN3C(=O)CC(SC[C@H](NC(=O)[C@H](CCCCNC(=O)CCc4ccc(C5=C(C=CC6=[N+](CCCCS(=O)(=O)[O-])c7ccc(S(=O)(=O)O)cc7C6(C)C)CCCC5=CC=C5N(CCCCS(=O)(=O)O)c6ccc(S(=O)(=O)O)cc6C5(C)C)cc4)NC(=O)CC[C@H](C(=O)O)N4CCN(CC(=O)O)CCN(CC(=O)O)CC4)C(N)=O)C3=O)C2=O)C(=O)NCCOCCOCC(N)=O)cc1)C(C)C)C(N)=O (stereo partly drawn) [[68Ga]Ga-16, metal not drawn]	–	–	–	–	–	–	-2.55 ± 0.13
CSCC[C@H](NC(=O)[C@H](CC(C)C)NC(=O)[C@H](Cc1c[nH]cn1)NC(=O)CNC(=O)[C@@H](NC(=O)[C@H](C)NC(=O)[C@H](Cc1c[nH]c2ccccc12)NC(=O)[C@H](CCC(N)=O)NC(=O)CCOCCOCCOCCOCCNC(=O)CON=Cc1ccc(C(=O)NCCCN(CCCNC(=O)c2ccc(C=NOCC(=O)NCCOCCOCCOCCOCCC(=O)N[C@@H](CCC(N)=O)C(=O)N[C@@H](Cc3c[nH]c4ccccc34)C(=O)N[C@@H](C)C(=O)N[C@H](C(=O)NCC(=O)N[C@@H](Cc3c[nH]cn3)C(=O)N[C@@H](CC(C)C)C(=O)N[C@@H](CCSC)C(N)=O)C(C)C)cc2)CC(=O)N[C@H](CSC2CC(=O)N(CCN3C(=O)CC(SC[C@H](NC(=O)CNC(=O)CC[C@H](C(=O)O)N4CCN(CC(=O)O)CCN(CC(=O)O)CC4)C(N)=O)C3=O)C2=O)C(=O)NCCOCCOCC(N)=O)cc1)C(C)C)C(N)=O (stereo partly drawn) [[68Ga]Ga-17, metal not drawn]	–	–	–	–	–	–	-2.38 ± 0.03
